Results from ChEMBL document CHEMBL1201862, “PubChem BioAssay data set” (2004).
The source made the active and inactive calls.

Assays:
Coagulation factor XII = target: T1, Coagulation factor XII (Homo sapiens, UniProt P00748); experiment: activated coagulation factor XII inhibitor potency, concentration-effect curve, cell-free (AID 716); type: functional
T1 sequence (P00748 whole entry): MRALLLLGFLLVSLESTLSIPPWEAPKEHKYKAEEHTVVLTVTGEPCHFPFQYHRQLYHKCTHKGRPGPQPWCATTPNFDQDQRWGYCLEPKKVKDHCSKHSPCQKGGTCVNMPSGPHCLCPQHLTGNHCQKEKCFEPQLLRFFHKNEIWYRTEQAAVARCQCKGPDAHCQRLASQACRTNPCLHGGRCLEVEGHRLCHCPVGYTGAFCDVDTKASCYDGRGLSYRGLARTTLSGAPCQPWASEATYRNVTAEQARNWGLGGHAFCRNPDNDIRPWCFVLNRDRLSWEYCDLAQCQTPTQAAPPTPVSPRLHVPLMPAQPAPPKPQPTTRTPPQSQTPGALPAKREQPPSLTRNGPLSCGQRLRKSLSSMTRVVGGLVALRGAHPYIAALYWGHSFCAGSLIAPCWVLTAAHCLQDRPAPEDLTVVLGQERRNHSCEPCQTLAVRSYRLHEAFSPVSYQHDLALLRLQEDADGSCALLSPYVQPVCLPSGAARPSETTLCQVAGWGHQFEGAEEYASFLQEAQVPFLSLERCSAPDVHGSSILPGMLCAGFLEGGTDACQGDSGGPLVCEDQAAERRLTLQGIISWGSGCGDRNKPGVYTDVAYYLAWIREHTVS

[1] = target: T2, Type-1 angiotensin II receptor (Homo sapiens, UniProt P30556); experiment: agonist activity at AGTR1 – cell-based, uHTS hits, selectivity assay for APJ receptor agonist project, dose response (AID 488865); type: functional;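 also: beta-arrestin recruitment to AT1 measured by enzyme fragment complementation luminescence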
T2 sequence (P30556 whole entry): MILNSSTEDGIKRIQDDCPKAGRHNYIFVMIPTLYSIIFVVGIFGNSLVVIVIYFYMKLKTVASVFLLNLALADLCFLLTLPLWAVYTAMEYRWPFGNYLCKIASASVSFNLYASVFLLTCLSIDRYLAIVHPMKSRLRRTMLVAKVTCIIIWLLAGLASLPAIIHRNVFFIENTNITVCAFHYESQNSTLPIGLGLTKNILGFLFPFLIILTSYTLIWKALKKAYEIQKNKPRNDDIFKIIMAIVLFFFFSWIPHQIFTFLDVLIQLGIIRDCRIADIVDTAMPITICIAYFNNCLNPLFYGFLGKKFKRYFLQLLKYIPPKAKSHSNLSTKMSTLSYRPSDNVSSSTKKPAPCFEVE

[2] = target: Voltage-dependent T-type calcium channel subunit alpha-1H (Homo sapiens, UniProt O95180); experiment: human CACNA1H calcium influx blockade – cell-based, synthetic library set 1, calcium flux (AID 493022); type: functional
HEK293 [3] = experiment: inhibition of NOD1-driven NF-kB reporter – cell-based, luminescence, uHTS, primary screen (AID 1578); type: functional; settings: Homo sapiens
HEK293 [4] = experiment: cells; type: functional, cell-based; settings: Homo sapiens
[5] = target: Dual specificity tyrosine-phosphorylation-regulated kinase 1A (Rattus norvegicus, UniProt Q63470); type: biochemical, Homo sapiens
HEK293 [6] = experiment: cells; type: functional, cell-based; settings: Homo sapiens; remark: listed apart in the source
[7] = target: Nucleotide-binding oligomerization domain-containing protein 2 (Homo sapiens, UniProt Q9HC29); experiment: inhibition of NOD2-driven NF-kB reporter – cell-based, luminescence, uHTS, HEK293 (AID 1566); type: functional
HEK293 [8] = experiment: cells; type: functional, cell-based; settings: Homo sapiens; remark: listed apart in the source
HEK293 [9] = experiment: NOD2 signaling inhibitors in MDP-stimulated cells, cell-based, uHTS, luminescence (AID 2001); type: functional; settings: Homo sapiens
[10] = target: T3, Endoribonuclease toxin MazF (Escherichia coli K-12, UniProt P0AE70); experiment: substrate-only fluorescence increase artefacts – biochemical, single-stranded RNase substrate, counter-screen for MazEF activator project, dose response (AID 588502); type: functional
T3 sequence (P0AE70 whole entry): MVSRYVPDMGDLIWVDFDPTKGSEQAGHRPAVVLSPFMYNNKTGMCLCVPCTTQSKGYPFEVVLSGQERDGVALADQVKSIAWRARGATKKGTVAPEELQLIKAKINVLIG

Troponin, cardiac muscle = Troponin, cardiac muscle (Homo sapiens, UniProt P19429+P45379+P63316); experiment: Fluorescence-based biochemical high throughput dose response assay for activators of the calcium sensitivity of cardiac Regulated Thin Filaments (RTF). [Related pubchem assays (depositor defined):AID493008, AID493018, AID504382, AID504383]; type: protein-complex assay
[11] = target: T3, Endoribonuclease toxin MazF; experiment: activation of MazEF endoribonuclease cleavage – biochemical, fluorescence, single-stranded RNA substrate, uHTS hits, dose response (AID 588481); type: functional
[12] = target: T4, Tyrosine-protein phosphatase non-receptor type 7 (Homo sapiens, UniProt P35236); experiment: redox-active compounds inhibiting HePTP phosphatase – biochemical, fluorescence, mechanism study (AID 2068); type: functional
T4 sequence (P35236 whole entry): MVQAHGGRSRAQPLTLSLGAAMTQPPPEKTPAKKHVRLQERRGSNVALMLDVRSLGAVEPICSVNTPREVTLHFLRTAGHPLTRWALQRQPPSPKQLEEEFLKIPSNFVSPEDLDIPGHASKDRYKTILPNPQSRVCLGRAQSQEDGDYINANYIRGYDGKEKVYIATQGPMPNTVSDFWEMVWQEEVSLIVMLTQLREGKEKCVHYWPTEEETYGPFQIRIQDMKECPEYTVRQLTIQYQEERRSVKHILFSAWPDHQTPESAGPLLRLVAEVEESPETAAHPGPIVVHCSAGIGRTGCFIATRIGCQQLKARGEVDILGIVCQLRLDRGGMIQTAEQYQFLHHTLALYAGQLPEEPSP

[13] = target: Tyrosine-protein phosphatase non-receptor type 12 (Homo sapiens, UniProt Q05209); experiment: SAR Selectivity Analysis of small molecule inhibitors of PEST using pCAP in a fluorescence assay. [Related pubchem assays (depositor defined):AID1779, AID1784, AID2135]; type: functional
[14] = target: T5, Dual specificity protein phosphatase 6 (Rattus norvegicus, UniProt Q64346); type: functional;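 also: confirmatory in vitro dose-response testing of MKP-3 inhibition; recombinant His-tagged MKP-3 made in E. coli BL21 with OMFP substrate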
T5 sequence (Q64346 whole entry): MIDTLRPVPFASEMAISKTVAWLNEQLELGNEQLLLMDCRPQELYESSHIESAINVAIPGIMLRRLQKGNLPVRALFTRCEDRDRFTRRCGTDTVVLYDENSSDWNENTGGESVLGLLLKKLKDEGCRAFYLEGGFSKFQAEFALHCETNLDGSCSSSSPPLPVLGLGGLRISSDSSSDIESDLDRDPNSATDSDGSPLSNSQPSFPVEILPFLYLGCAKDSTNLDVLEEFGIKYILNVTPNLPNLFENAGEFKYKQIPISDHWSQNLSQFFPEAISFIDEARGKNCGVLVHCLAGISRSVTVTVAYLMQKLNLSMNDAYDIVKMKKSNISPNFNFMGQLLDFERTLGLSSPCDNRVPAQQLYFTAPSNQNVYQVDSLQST

[15] = target: Dual specificity protein phosphatase 3 (Homo sapiens, UniProt P51452); experiment: SAR VHR1 Fluorescent Assay for In Vitro dose response studies Set 2. [Related pubchem assays (depositor defined):AID1654, AID1661, AID1878]; type: functional
[16] = target: T6, Tyrosine-protein phosphatase non-receptor type 22 (Homo sapiens, UniProt Q9Y2R2); experiment: SAR LYP1 Fluorescent Assay using OMFP substrate for In Vitro dose response studies - Set 3. [Related pubchem assays (depositor defined):AID1779, AID1784, AID2140, AID2686]; type: functional
T6 sequence (Q9Y2R2 whole entry): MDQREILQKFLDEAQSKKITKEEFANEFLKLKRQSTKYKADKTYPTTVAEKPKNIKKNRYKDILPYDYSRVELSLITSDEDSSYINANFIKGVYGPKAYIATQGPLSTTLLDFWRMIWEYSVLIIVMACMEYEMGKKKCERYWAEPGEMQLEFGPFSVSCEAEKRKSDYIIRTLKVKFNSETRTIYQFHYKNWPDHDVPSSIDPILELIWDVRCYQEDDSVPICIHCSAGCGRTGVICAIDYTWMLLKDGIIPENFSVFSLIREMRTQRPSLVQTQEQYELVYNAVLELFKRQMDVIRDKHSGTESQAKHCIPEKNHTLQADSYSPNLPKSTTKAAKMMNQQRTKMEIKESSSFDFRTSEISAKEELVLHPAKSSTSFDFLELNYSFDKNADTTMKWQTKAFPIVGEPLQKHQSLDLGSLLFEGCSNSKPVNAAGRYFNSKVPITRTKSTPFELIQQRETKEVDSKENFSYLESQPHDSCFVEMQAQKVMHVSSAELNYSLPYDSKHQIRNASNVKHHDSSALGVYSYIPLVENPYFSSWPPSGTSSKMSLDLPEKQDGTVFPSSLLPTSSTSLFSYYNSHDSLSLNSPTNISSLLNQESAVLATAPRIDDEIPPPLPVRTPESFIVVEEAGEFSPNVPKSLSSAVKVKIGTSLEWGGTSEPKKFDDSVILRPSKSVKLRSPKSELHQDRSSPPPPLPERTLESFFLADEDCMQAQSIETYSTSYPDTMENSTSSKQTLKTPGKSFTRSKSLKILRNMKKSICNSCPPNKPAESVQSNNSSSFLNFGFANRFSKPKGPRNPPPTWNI

[17] = target: T6, Tyrosine-protein phosphatase non-receptor type 22; experiment: inhibition of lymphoid tyrosine phosphatase LYP – biochemical, pCAP fluorogenic substrate, fluorescence, set 3, SAR follow-up (AID 449727); type: functional
[18] = target: T4, Tyrosine-protein phosphatase non-receptor type 7; experiment: inhibition of hematopoietic tyrosine phosphatase HePTP – biochemical, set 2, SAR follow-up (AID 449736); type: functional
Vero [19] = experiment: cells; type: functional; settings: Chlorocebus sabaeus
[20] = target: E3 ubiquitin-protein ligase Mdm2/Protein Mdm4 (Homo sapiens, UniProt O15151+Q00987); experiment: disruption of Mdm2/MdmX protein binding – luminescence detection, dose response (AID 504593); type: functional
Vero [21] = experiment: cells; type: functional, cell-based; settings: Chlorocebus sabaeus
[22] = Luminescence Cell-Based Dose Retest to Confirm Inhibitors of Cancer Stem Cells. [Related pubchem assays (depositor defined):AID2717, AID2721]; type: functional; settings: Homo sapiens
Hexokinase = Hexokinase (Trypanosoma brucei, UniProt Q38C41); experiment: Confirmation assay for inhibitors of Trypanosoma brucei hexokinase 1-Analogue-first series. [Related pubchem assays (depositor defined):AID1430, AID1632, AID2516, AID2560, AID2579, AID2600, AID449725, AID492951]; type: functional
[23] = target: T7, Alkaline phosphatase, tissue-nonspecific isozyme (Homo sapiens, UniProt P05186); experiment: potency against alkaline phosphatase TNAP – biochemical, luminescent, dose response, SAR follow-up (AID 1056)
T7 sequence (P05186 whole entry): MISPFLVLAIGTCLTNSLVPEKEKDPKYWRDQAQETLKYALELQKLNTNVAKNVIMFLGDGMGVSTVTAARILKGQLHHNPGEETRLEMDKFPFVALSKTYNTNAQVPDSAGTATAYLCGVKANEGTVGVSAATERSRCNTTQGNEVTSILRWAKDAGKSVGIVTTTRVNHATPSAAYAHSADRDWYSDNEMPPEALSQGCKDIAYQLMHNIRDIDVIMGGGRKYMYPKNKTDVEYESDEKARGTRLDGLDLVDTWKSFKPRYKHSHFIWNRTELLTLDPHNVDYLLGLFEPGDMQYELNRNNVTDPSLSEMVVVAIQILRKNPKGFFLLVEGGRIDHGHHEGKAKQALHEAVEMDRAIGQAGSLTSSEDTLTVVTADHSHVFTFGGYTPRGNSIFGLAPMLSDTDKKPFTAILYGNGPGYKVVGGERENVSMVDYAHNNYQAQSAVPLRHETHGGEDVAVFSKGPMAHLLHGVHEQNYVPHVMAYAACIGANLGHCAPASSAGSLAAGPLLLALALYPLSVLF

[24] = target: Alkaline phosphatase, placental type (Homo sapiens, UniProt P05187); experiment: human placental alkaline phosphatase inhibition – biochemical, luminescence, confirmation (AID 1512); type: functional

CCOC(=O)c1nnn(-c2nonc2N)c1CNc1ccc(C)c(Br)c1
IC50 (Coagulation factor XII): > 50 µM (inactive)

C=CCSc1nc(=O)c(CC)c(O)n1C(C)CC (configuration not stated)
EC50 [1]: > 100 µM (inactive)

CC(Oc1ccccc1)C(=O)Nc1nnc(-c2ccc(F)c(F)c2)o1 (configuration not stated)
EC50 [2]: 10 µM (active)

Clc1c(Cl)c(Cl)c2[nH]nnc2c1Cl
EC50 (HEK293 [3]): 2.24 µM (active) | IC50 (HEK293 [4]): 13.9 µM (active) | AC50 [5]: 5.99 µM (active) | IC50 (HEK293 [6]): > 20 µM (inactive) | EC50 [7]: 3.2 µM (active) | IC50 (HEK293 [8]): > 20 µM (inactive) | IC50 (HEK293 [9]): 7.94 µM (active)

O=[N+]([O-])c1ccc(NN=Cc2cccc3ccccc23)nc1
EC50 [10]: 45.4 µM (inactive) | EC50 (Troponin, cardiac muscle): 26.6 µM (inactive) | EC50 [11]: > 99 µM (inactive)

CCOc1cc(/C=C2/S/C(=N/c3ccc4ccccc4c3)NC2=O)cc(Cl)c1OCC(=O)O
IC50 [12]: 0.373 µM (active) | IC50 [13]: 4.76 µM (active) | IC50 [14]: 26.5 µM (active) | IC50 [15]: 0.48 µM (active) | IC50 [16]: 15.6 µM (active) | IC50 [17]: 12.3 µM (active) | IC50 [18]: 0.466 µM (active)

O=C(/C=C/c1c(F)cccc1Cl)c1ccc(O)cc1
CC50 (Vero [19]): 19.9 µM (active) | IC50 [20]: 5.74 µM (active) | IC50 (Vero [21]): 23.6 µM (active) | AC50 [22]: 6.85 µM (active)

COc1ccc(Nc2cc(Cl)ccc2C(=O)O)cc1
IC50 (Hexokinase): > 25 µM (inactive)

C=CCn1c(SCC(=O)c2ccc(O)c(O)c2)nnc1-c1ccc(Cl)cc1
IC50 [23]: > 100 µM (inactive) | IC50 [24]: 11.8 µM (active)
